# Data published in patent publication US20220257557A1, “PHARMACEUTICAL COMPOSITION FOR PREVENTING OR TREATING NEUROLOGICAL DISEASES” (GLACEUM INC., priority 2019, published 2022).
# Columns and labels:
# SH-SY5Y cells [1] = assay: Intracellular ATP production after MPP+ mitochondrial damage; format: cell-based, Human; conditions: 1 mM MPP+ 24 h, then 0.0001-1 μM compound 24 h, FIG. 3
# Experimental: (§1) Human neuronal SH-SY5Y cells were cultured in a 1:1 DMEM/F12 medium containing 10% FBS (fetal bovine serum) at 37° C. under 5% carbon dioxide and 95% air. The cultured cells were transferred to a 96-well cell culture plate at a density of 2*10^4 cells/well and cultured for 24 hours. Thereafter, after replacement with serum-restricted medium (1:1 DMEM/F12 medium containing 0.5% FBS), the cells were cultured for 16 hours. Then, the cultured cells were treated with 1 mM MPP+ (1-methyl-4-phenylpyridinium) and cultured for 24 hours, thus inducing mitochondrial dysfunction in the cells. […]
# 100 μl of the cell lysate of the culture obtained in Experimental Example 3-1 was mixed with 100 μl of luciferin-luciferase reaction buffer using an ATP bioluminescent somatic cell assay kit (Sigma-Aldrich), and the mixture was allowed to react at 20° C. for 10 minutes. Thereafter, the supernatant was obtained and the fluorescence intensity thereof was measured with an LB 9501 Lumat-Luminometer to confirm recovery from the decrease in intracellular ATP production caused by mitochondrial damage.
# The fluorescence intensities of controls were measured in the same manner as the above-described method, except for using a sample to which DMSO was added (normal control) instead of MMP+ and the compound of Formula III-1 and a sample to which the compound of Formula III-1 was not added (negative control). […]
# BV2 cells [2] = assay: Transcription of NF-κB protein (p65, p50) into nucleus after LPS (Western blot); format: cell-based; conditions: 3 h pretreatment (Table 3 amounts), LPS 1 μg/ml 1 h
# Summary of the method: (§2)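 Cells (5×10^5/well) cultured in DMEM with 10% FBS at 37° C, 5% CO2, pretreated with compound, then stimulated with 1 μg/ml LPS for 1 hour. Nuclear levels of p65 and p50 measured by Western blot.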
# RAW264.7 cells [3] = assay: IL-1β, IL-6 and TNF-α mRNA expression after LPS (RT-PCR); format: cell-based; conditions: 3 h pretreatment (Table 3 amounts), LPS 1 μg/ml 6 h
# Summary of the method: (§3)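 Cells pretreated with test compounds (cytotoxicity checked by MTT), then stimulated with 1 μg/ml LPS for 6 h. IL-1β, IL-6 and TNF-α mRNA levels measured by RT-PCR.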
# BV2 cells [4] = assay: as above; format: cell-based; conditions: 3 h pretreatment (Table 3 amounts), LPS 1 μg/ml 6 h
# Summary of the method: as §3
# RAW264.7 cells [5] = assay: Transcription of NF-κB protein (p65, p50) into nucleus after LPS (Western blot); format: cell-based; conditions: 3 h pretreatment (Table 3 amounts), LPS 1 μg/ml 1 h
# Summary of the method: as §2
# SH-SY5Y cells [6] = assay: Mitochondrial reactive oxygen species (MitoSOX Red) after MPP+; format: cell-based, Human; conditions: 1 mM MPP+ 24 h, then 0.0001-1 μM compound 24 h, FIG. 5
# Experimental: as §1
# The level of reactive oxygen species generated in mitochondria was measured using a reduced fluorescent material called MitoSOX™ Red reagent.
# Specifically, the culture obtained in Experimental Example 3-1 was treated with 50 μg of MitoSOX Red dissolved in 13 μl DMSO and was incubated at 37° C. for 1 hour. […] Then, the fluorescence intensity at an excitation wavelength of 510 nm and an emission wavelength of 595 nm was measured with a fluorescence analyzer to determine the level of reactive oxygen species generated in the mitochondria. […]
# The concentration of MitoSOX Red determined from the fluorescence intensity was expressed as a percentage of the normal control.
smiles,measurement,setting,value
"CCOc1ccc(C2COc3c(ccc4c3CCC(C)(C)O4)C2)c(O)c1 (stereo not drawn) [Formula III-1, 2-(8,8-dimethyl-2,3,4,8,9,10-hexahydropyrano[2,3-f]chromen-3-yl)-5-ethoxyphenol]",decrease in ATP production caused by mitochondrial damage due to MPP+,SH-SY5Y cells [1],recovery
same,"level of transcription of NF-κB protein into the nucleus, p50",BV2 cells [2],concentration-dependently decreased
same,"level of transcription of NF-κB protein into the nucleus, p65",BV2 cells [2],concentration-dependently decreased
same,mRNA expression level of IL-1β,RAW264.7 cells [3],concentration-dependently decreased
same,mRNA expression level of IL-6,RAW264.7 cells [3],concentration-dependently decreased
same,mRNA expression level of TNF-α,RAW264.7 cells [3],concentration-dependently decreased
same,mRNA expression level of IL-1β,BV2 cells [4],concentration-dependently decreased
same,mRNA expression level of IL-6,BV2 cells [4],concentration-dependently decreased
same,mRNA expression level of TNF-α,BV2 cells [4],concentration-dependently decreased
same,"level of transcription of NF-κB protein into the nucleus, p50",RAW264.7 cells [5],concentration-dependently decreased
same,"level of transcription of NF-κB protein into the nucleus, p65",RAW264.7 cells [5],concentration-dependently decreased
same,level of reactive oxygen species generated in the mitochondria (Mito-SOX),SH-SY5Y cells [6],decreased
